Source: ChEMBL document CHEMBL1201862, “PubChem BioAssay data set” (2004)
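Tested at 5 concentrations; 48 h exposure; 96-well plates; endpoints linearly interpolated, else capped at highest concentration. GI50 is the concentration that inhibits growth by half.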 Calls of active or inactive are those of the source. No stated cut-off is given here; in the data, active = GI50 up to about 1.1 µM and inactive = higher.

Legend:
Test in all cases: NCI-60 cell line screen, 48 h
RXF 631 = test system: RXF 631
HOP-18 = test system: HOP-18
LXFL 529 = test system: LXFL 529
DMS-114 = test system: DMS-114
M19-MEL = test system: M19-MEL
SNB-78 = test system: SNB-78
KM-20L2 = test system: KM-20L2
DMS-273 = test system: DMS-273
XF498 = test system: XF498

Measured: GI50

CCOc1cc2c[n+](C)c3c4cc(OC)c(OC)cc4ccc3c2cc1OC
inactive: RXF 631 4.07 µM | HOP-18 60.8 µM | LXFL 529 > 100 µM | DMS-114 > 100 µM | M19-MEL > 100 µM | SNB-78 > 100 µM | KM-20L2 > 100 µM

Cc1cccc2[n+]1[C@H]1[C@H]([C@@H]3O[C@H]1c1ccccc13)[S+]([O-])N2 (stereo partly specified)
inactive: RXF 631 > 100 µM | HOP-18 21.2 µM | DMS-273 27.2 µM | LXFL 529 33.7 µM | XF498 20.2 µM | DMS-114 22.7 µM | M19-MEL 29.9 µM | SNB-78 23.3 µM | KM-20L2 42.7 µM

CC(C)(C)c1cc(Cc2ccc([N+](C)(C)C)cc2)c(O)c(C(C)(C)C)c1
inactive: RXF 631 45.6 µM | HOP-18 20.1 µM | DMS-273 9.64 µM | LXFL 529 13.8 µM | XF498 13 µM | DMS-114 7.19 µM | M19-MEL 12.9 µM | SNB-78 14.9 µM | KM-20L2 21.9 µM

Cc1ccc(C)c(N2C(=O)C(=O)C(c3nc4ccccc4s3)C(=O)C2=O)c1
inactive: DMS-273 > 100 µM | LXFL 529 > 100 µM | DMS-114 > 100 µM | M19-MEL > 100 µM | SNB-78 > 100 µM | KM-20L2 > 100 µM

COc1cc(C2C(C(=O)Nc3ccc([N+](=O)[O-])cc3)=C(C)NC(C)=C2C(=O)Nc2ccc([N+](=O)[O-])cc2)ccc1O
inactive: RXF 631 32.5 µM | HOP-18 27.6 µM | DMS-273 21.9 µM | LXFL 529 18.3 µM | XF498 23.8 µM | DMS-114 24.1 µM | M19-MEL 19.3 µM | SNB-78 34.8 µM | KM-20L2 18.5 µM

COc1ccc([C@@H]2OC(=O)C3C2C(=O)O[C@H]3c2ccc(OC)c(OC)c2)cc1OC (stereo partly specified)
inactive: RXF 631 > 100 µM | HOP-18 > 100 µM | DMS-273 > 100 µM | XF498 > 100 µM | DMS-114 > 100 µM | M19-MEL > 100 µM | SNB-78 > 100 µM | KM-20L2 > 100 µM

CN(C)C(c1ccccc1)C(O)c1ccccc1 (stereo unspecified)
inactive: RXF 631 > 100 µM | HOP-18 > 100 µM | DMS-273 > 100 µM | LXFL 529 > 100 µM | XF498 > 100 µM | DMS-114 > 100 µM | M19-MEL > 100 µM | SNB-78 > 100 µM | KM-20L2 > 100 µM

Cc1cccc(C)c1NC(=O)C(=O)CC(=O)c1cccc([N+](=O)[O-])c1
inactive: HOP-18 > 100 µM | DMS-273 > 100 µM | LXFL 529 > 100 µM | XF498 > 100 µM | M19-MEL > 100 µM | SNB-78 > 100 µM | KM-20L2 > 100 µM

O=C(Nc1nc2ncn(CCOC(=O)c3ccccc3)c2c(=O)[nH]1)c1ccccc1
inactive: RXF 631 15.4 µM | HOP-18 > 100 µM | LXFL 529 22.7 µM | XF498 20.2 µM | SNB-78 > 100 µM | KM-20L2 6.9 µM

CC(Oc1ccc2c(=O)cc(-c3ccccc3)oc2c1)C(=O)O (stereo unspecified)
inactive: HOP-18 > 100 µM | LXFL 529 > 100 µM | XF498 > 100 µM | DMS-114 > 100 µM | M19-MEL > 100 µM | SNB-78 > 100 µM | KM-20L2 > 100 µM

Cc1ccc(S(=O)(=O)c2ccc(NC(=O)SCCC(=O)O)cc2)cc1
inactive: DMS-273 > 100 µM | LXFL 529 > 100 µM | DMS-114 > 100 µM | SNB-78 > 100 µM | KM-20L2 > 100 µM

N#C/C(=C\c1c[nH]c2ccccc12)C(=O)c1ccc(O)c(O)c1
inactive: HOP-18 38.5 µM | DMS-273 36.2 µM | LXFL 529 39.4 µM | XF498 48.8 µM | M19-MEL 83.2 µM | KM-20L2 55.5 µM

CCOC(=O)C1=C(C(=O)OCC)C2c3ccccc3C=CN2C(C(=O)OCC)=C(SC)S1 (stereo unspecified)
inactive: DMS-273 63.1 µM | LXFL 529 51.2 µM | DMS-114 52.5 µM | M19-MEL > 100 µM | SNB-78 79.1 µM | KM-20L2 > 100 µM

O=C(N/N=C(/c1nc2ccc(Cl)cc2[nH]c1=O)C(O)c1ccc(Cl)cc1Cl)c1ccncc1 (stereo unspecified)
inactive: RXF 631 > 100 µM | DMS-273 > 100 µM | LXFL 529 > 100 µM | DMS-114 > 100 µM | M19-MEL > 100 µM | SNB-78 > 100 µM | KM-20L2 > 100 µM

N#C/C(=C\c1cc2ccccc2c2ccccc12)c1ccccc1
inactive: HOP-18 18.7 µM | DMS-273 3.05 µM | LXFL 529 14.4 µM | XF498 3.22 µM | M19-MEL 7.29 µM | SNB-78 4.06 µM | KM-20L2 3.9 µM

NC(=S)N/N=C(\C(=O)Nc1cccc([N+](=O)[O-])c1)c1nc2ccc([N+](=O)[O-])cc2nc1O
inactive: RXF 631 > 100 µM | HOP-18 15 µM | DMS-273 44.4 µM | LXFL 529 71.1 µM | XF498 36.1 µM | DMS-114 20.7 µM | M19-MEL > 100 µM | KM-20L2 37.2 µM

COc1ccc(NC(=O)COC(=O)c2cccc3c(=O)c4ccccc4[nH]c23)cc1
inactive: HOP-18 27 µM | LXFL 529 17.3 µM | XF498 19.9 µM | DMS-114 17.2 µM | M19-MEL 19.2 µM | SNB-78 22.1 µM | KM-20L2 21.5 µM

COc1ccc(S(=O)(=O)NNS(C)(=O)=O)cc1
inactive: RXF 631 > 100 µM | DMS-273 > 100 µM | LXFL 529 > 100 µM | XF498 60.3 µM | DMS-114 > 100 µM | M19-MEL > 100 µM | KM-20L2 > 100 µM

CSc1nc(-c2ccccc2)nc(N2CCOCC2)[s+]1
inactive: HOP-18 > 100 µM | DMS-273 > 100 µM | LXFL 529 37.3 µM | M19-MEL > 100 µM | SNB-78 > 100 µM | KM-20L2 > 100 µM

Cc1ccc(C)c(NC(=O)CCc2nnc(S)[nH]2)c1
inactive: RXF 631 > 100 µM | HOP-18 > 100 µM | DMS-273 > 100 µM | LXFL 529 > 100 µM | XF498 > 100 µM | DMS-114 28.7 µM | M19-MEL > 100 µM | SNB-78 > 100 µM | KM-20L2 > 100 µM

Brc1ccc(/C=N/C23CC4CC(CC(C4)C2)C3)cc1
inactive: RXF 631 > 100 µM | HOP-18 > 100 µM | DMS-273 > 100 µM | LXFL 529 > 100 µM | XF498 > 100 µM | DMS-114 > 100 µM | M19-MEL > 100 µM | SNB-78 > 100 µM | KM-20L2 > 100 µM

CN(C)CCC(CCN(C)C)=NOC(=O)c1ccccc1
inactive: RXF 631 > 100 µM | HOP-18 > 100 µM | DMS-273 > 100 µM | LXFL 529 > 100 µM | XF498 > 100 µM | DMS-114 > 100 µM | M19-MEL > 100 µM | KM-20L2 > 100 µM

COc1ccc(CC(=O)c2cc(OC)c(OC)cc2C)cc1OC
inactive: LXFL 529 24.8 µM | XF498 25.5 µM | DMS-114 14.7 µM | M19-MEL 37.6 µM | SNB-78 > 100 µM | KM-20L2 > 100 µM

CC(=O)C1=C(C)Cn2c(=O)c3ccccc3c(=O)n2C1
inactive: RXF 631 > 100 µM | DMS-273 > 100 µM | LXFL 529 > 100 µM | DMS-114 > 100 µM | M19-MEL > 100 µM | KM-20L2 > 100 µM

COc1ccc(C2c3cc4c(cc3OC(O)(CO)C2C(=O)O)OCO4)c(OC)c1OC.COc1ccc(C2c3cc4c(cc3OC3(O)COC(=O)C23)OCO4)c(OC)c1OC (stereo unspecified)
inactive: HOP-18 > 100 µM | DMS-273 > 100 µM | XF498 > 100 µM | DMS-114 > 100 µM | M19-MEL > 100 µM | SNB-78 59.2 µM | KM-20L2 > 100 µM
